US10067136B1, “Photoactivatable probes and uses thereof” (University of South Florida, priority 2016, dated 2018)
Entries after “also recorded” stand apart in the source; their conditions may differ.

Experiments:
[1] = Thermal stability evaluation in the dark (19F NMR); format: physicochemical; details: d4-methanol solution, room temperature (21° C.), one month
Protocol: (§1) Photolabel (1, 2, or 3) (1 mg) was dissolved in d4-methanol (500 μL) in a 5 mm NMR tube. The ^19F NMR of this solution was recorded before any exposure to ambient light as the zero day reading. The NMR tube was then placed in the dark at room temperature and the ^19F NMR of this solution was recorded periodically (8, 14, and 31 days). The analysis was repeated in duplicate.

concanavalin A (Con A) [2] = target: T1, concanavalin A (Con A) (Canavalia ensiformis, UniProt P02866); test: Photolabeling of Con A, Coomassie gel and anti-biotin western blot; format: binding; details: for photolabeling of Con A upon UV photoactivation (in words): UV light >320 nm, 10 minutes, anti-biotin peroxidase western blot; for labeling of Con A without UV photoactivation (in words): incubated with Con A, not exposed to UV light
Protocol: To a solution of concanavalin A (Con A) (0.2 mg) in acetate buffer (10 mM, pH=5 with calcium chloride (1 mM), manganese (II) chloride (1 mM) and sodium chloride (200 mM)) (1 ml), the photoaffinity label (20, 21 or 22) solution (10 mM) in methanol (3 μL) was added at 0° C. This solution was bubbled with a gentle stream of nitrogen gas, using a clean needle, for 5 minutes and incubated in the dark at 0° C. for 30 minutes. […] The resultant sample can be stored at −80° C. and used for SDS gel, Western blot analysis or mass spectroscopic analysis.
Upon running the SDS gel, the PVDF membrane and gel was shaken in transfer buffer for 15 minutes. The holder cassette was placed opened in a shallow vessel such that the black panel was lying flat on the bottom of the vessel. Fiber pad presoaked with transfer buffer was then placed on the black panel of the holder cassette and a presoaked filter paper was placed over it. The equilibrated gel was carefully placed over the filter paper to avoid any air bubble getting trapped between the layers. Then the PVDF membrane was laid over the gel with care towards avoiding any air pocket between the layers. A presoaked filter paper was placed over the membrane followed by a filter pad. The resultant sandwich was firmly secured and the cassette was closed. The cassette holder was placed in the tank such that the black panel of the holder was on the black panel electrode. Insert the ice pack on the other side of the tank and place the tank on a magnetic stirrer. The tank was filled to the top row of circles in the cassette with transfer buffer. The magnetic stirrer was turned on and the lid was closed with black wire to black panel, red wire to red panel. The unit was connected to a power supply and ran at constant voltage of 70 V for 60 minutes. The membrane was carefully removed and the membrane was blocked with 5% (w/v) NFDM (non-fat dry milk) in tris saline Tween-20 buffer (TBS-T) for 1 hour at room temperature. The blocked membrane was then incubated overnight on a shaker at 4° C. with anti-biotin-peroxidase antibody in TBS-T buffer containing 1% NFDM. The membrane was washed five times (10 minutes each time on a shaker) with TBS-T buffer. The membrane was incubated for 5 minutes at room temperature with SuperSignal West Pico chemiluminescence substrate as per manufacturer's protocol. The resultant chemiluminescence of the bands was recorded on a photographic film and developed using a film processor.

[3] = Near UV-visible absorption spectra; format: physicochemical; details: near-UV/Vis, 2.5 mM solution in methanol; relative to the conventional photolabel
[4] = Ambient light stability evaluation (fluorescent lamps, 19F NMR); format: physicochemical; details: d4-methanol; for photodecomposition under ambient light (in words): after 7 days of light exposure; for diazirine remaining intact after ambient light exposure: one month, two linear fluorescent lamps (28 W each), room temperature
Protocol: as §1, with “directly under two linear fluorescent lamps (28 W each)” for “in the dark”, “(4, 7,” for “(8,”, “14, 18, 26” for “14,”

concanavalin A (Con A) [5] = target: T1, concanavalin A (Con A); test: Photolabeling of Con A in the presence of mannose (competitive binding); details: competing mannose at 100 fold or 1000 fold, western blot
Protocol: For the competitive binding studies with mannose, to a solution of Con A (0.2 mg) in acetate buffer (10 mM, pH=5 with calcium chloride (1 mM), manganese (II) chloride (1 mM) and sodium chloride (200 mM)) (1 ml) a aqueous solution of mannose (30 μL of 100 mM solution for 100 fold [or] 30 μL of 1 M solution for 1000 fold) was added and mixed. To this the photoaffinity label (20, 21 or 22) solution (10 mM) in methanol (3 μL) was added at 0° C. This solution was bubbled with a gentle stream of nitrogen gas, using a clean needle, for 5 minutes and incubated in the dark at 0° C. for 30 minutes. The sample was then transferred to a disposable cuvette and photoactivated for 10 minutes using a 150 W XBO xenon short-arc UV lamp fitted with a filter that cuts off light with wavelengths less than 320 nm. The resultant sample can be stored at −80° C. and used for SDS gel and Western blot analysis.
Upon running the SDS gel, the PVDF membrane and gel was shaken in transfer buffer for 15 minutes. The holder cassette was placed opened in a shallow vessel such that the black panel was lying flat on the bottom of the vessel. Fiber pad presoaked with transfer buffer was then placed on the black panel of the holder cassette and a presoaked filter paper was placed over it. […] The resultant chemiluminescence of the bands was recorded on a photographic film and developed using a film processor.

SMILES | decomposition / stability in the dark (in words) [1] | photolabeling of Con A upon UV photoactivation (in words) (concanavalin A (Con A) [2]) | decrease of absorption coefficient ϵ [3] | photodecomposition under ambient light (in words) [4] | diazirine remaining intact after ambient light exposure [4] | labeling of Con A without UV photoactivation (in words) (concanavalin A (Con A) [2]) | photolabeling / crosslinking of Con A in the presence of mannose (in words) (concanavalin A (Con A) [5])
OCc1ccc(C2(C(F)(F)F)N=N2)cn1 [compound 1, (5-(3-(trifluoromethyl)-3H-diazirin-3-yl)pyridin-2-yl)methanol] | stable | as efficiently as the conventional diazirine photolabel 3 | approximately 15% | negligibly photodecomposed | 79% | – | –
OCc1ncc(C2(C(F)(F)F)N=N2)cn1 [compound 2, (5-(3-(trifluoromethyl)-3H-diazirin-3-yl)pyrimidin-2-yl) methanol] | stable | as efficiently as the conventional diazirine photolabel 3 | ~30% | virtually unaffected | 90% | – | –
OCc1ccc(C2(C(F)(F)F)N=N2)cc1 [compound 3, (4-(3-(trifluoromethyl)-3H-diazirin-3-yl)phenyl)methanol, reference compound] | stable | – | – | significant photodecomposition | 27% | – | –
O=C(CCCCC1SCC2NC(=O)NC21)NCCCCCCN(Cc1ccc(C2(C(F)(F)F)N=N2)cc1)C(=O)CO[C@H]1O[C@H](CO)[C@@H](O)[C@H](O)[C@@H]1O (stereo partly drawn) [compound 20, 5-(2-oxohexahydro-1H-thieno[3,4-d]imidazol-4-yl)-N-(6-(N-(4-(3-(trifluoromethyl)-3H-diazirin-3-yl)benzyl)-2-(((2S,3S,4S,5S,6R)-3,4,5-trihydroxy-6-(hydroxymethyl)tetrahydro-2H-pyran-2-yl)oxy)acetamido)hexyl)pentanamide] | – | successfully labeled the protein target upon photoactivation | – | – | – | detected only with coomassie stain and not in the western blot analysis | –
O=C(CCCCC1SCC2NC(=O)NC21)NCCCCCCN(Cc1ccc(C2(C(F)(F)F)N=N2)cn1)C(=O)CO[C@H]1O[C@H](CO)[C@@H](O)[C@H](O)[C@@H]1O (stereo partly drawn) [compound 21, 5-(2-oxohexahydro-1H-thieno[3,4-d]imidazol-4-yl)-N-(6-(N-((5-(3-(trifluoromethyl)-3H-diazirin-3-yl)pyridin-2-yl)methyl)-2-(((2S,3S,4S,5S,6R)-3,4,5-trihydroxy-6-(hydroxymethyl)tetrahydro-2H-pyran-2-yl)oxy)acetamido)hexyl)pentanamide] | – | successfully labeled the protein target upon photoactivation; also recorded: as effectively as the conventional phenyl derived photolabel 20 | – | – | – | detected only with coomassie stain and not in the western blot analysis | correlates indirectly to the concentration of competing mannose ligand
O=C(CCCCC1SCC2NC(=O)NC21)NCCCCCCN(Cc1ncc(C2(C(F)(F)F)N=N2)cn1)C(=O)CO[C@H]1O[C@H](CO)[C@@H](O)[C@H](O)[C@@H]1O (stereo partly drawn) [compound 22, 5-(2-oxohexahydro-1H-thieno[3,4-d]imidazol-4-yl)-N-(6-(N-((5-(3-(trifluoromethyl)-3H-diazirin-3-yl)pyrimidin-2-yl)methyl)-2-(((2S,3S,4S,5S,6R)-3,4,5-trihydroxy-6-(hydroxymethyl)tetrahydro-2H-pyran-2-yl)oxy)acetamido)hexyl)pentanamide] | – | successfully labeled the protein target upon photoactivation; also recorded: as effectively as the conventional phenyl derived photolabel 20 | – | – | – | detected only with coomassie stain and not in the western blot analysis | correlates indirectly to the concentration of competing mannose ligand
